This is an account of results in patent publication US10941379B2, “Microbial system for biosynthesis of natural and engineered products coupled to in situ extraction in supercritical CO2” (Massachusetts Institute of Technology, priority 2016, dated 2021).

Some results are limits rather than exact numbers.

Common to all, as to format: cell-based, Bacillus megaterium
Test [1] relates to B. megaterium SR7. Put plainly: M9 supplemented growth under 1 atm CO2 (OD600). The settings on record: amendment to M9 base medium, 1 atm CO2, scored by OD600. An excerpt:
Development of a minimal medium enables individual chemical components to be tuned in order to establish optimized growth from a sole carbon source under 1 atm CO2. Initial attempts to generate B. megaterium SR7 growth in triplicate cultures tested various amendments to M9 base medium (thelabrat.com; Table 1), including 0.4% glucose or 0.4% xylose amendments as sole carbon sources, with or without trace metals solution (Boone et al., 1989). The 1× concentration trace metals solution consisted of (in g/l): 0.005 Na2(EDTA), 0.0002 NiSO4.6H2O, 0.0005 CoCl2.6H2O, 0.0001H2FeO3, 0.001 FeSO4.7H2O, 0.0001H3BO3, 0.001 ZnCl2, 0.0001 NaMoO4.2H2O, 0.0004 AlCl3.6H2O, 0.001 MnCl2.4H2O, 0.0003 Na2NO4.2H2O, 0.0002 CaCl2. To further boost growth, triplicate cultures of M9+0.4% glucose were amended with dilute LB (0.001-0.01×) or yeast extract (YE; 0.001-0.01×) as de facto vitamin and co-factor solutions, and/or NaNO3 (5 mM) as an alternative electron acceptor. All M9 incubations were scored for growth by OD600 and designated as robust above OD600>0.600, low level between 0.2-0.6, and no growth below 0.2. Passaged vegetative cultures were also assayed in duplicate for growth (by OD600) amended with a range (0.1×, 0.25×, 1×) of trace metals solutions in M9+0.4% glucose+0.01×YE media, including in the presence and absence of 5 mM NaNO3.

The subject of test [2] is B. megaterium SR7 spores. Put plainly: Flow cytometry germination assay (Syto16/PI). The settings on record: PBS amended with 2.5, 25, 250 mM. The method, then:
FCM was employed as a high-throughput germination assay based on Baier et al., (2010). Triplicate cultures of B. megaterium SR7 spores loaded at OD600 0.01 were incubated overnight in PBS and PBS amended with 2.5-250 mM L-alanine, along with cell-free PBS controls. Prior to loading on the flow cytometer (BD FACS Canto II HTS-1; Becton Dickinson; Franklin Lakes, N.J.) cultures were diluted 1/50 in PBS and stained with Syto16® and propidium iodide (PI) in the dark for at least 30 minutes prior to analysis. After spore and media-only samples were used to set forward scatter, side-scatter, Syto16 and PI gates, sample data was collected and analyzed using […]™ software (BD Biosciences; Franklin Lakes, N.Y.).
For orientation: Flow cytometry measures light scatter and fluorescence of single cells or particles in a stream.

Test [3] deals with B. megaterium SR7 spores. Put plainly: Spore germination induction in PBS under 1 atm CO2 (fluorescence microscopy, bulk fluorescence). The settings on record: 100 mM, 8.5 hour endpoint (maximum). As for the experimental part: The role of candidate germination inducers was subsequently investigated in PBS buffer rather than growth medium to decouple the germination process from outgrowth. B. megaterium SR7 spores were loaded in triplicate 10 ml PBS amended with 100-250 mM L-alanine, 100 mM L-alanine with heat treatment, 25 mM L-leucine, or an unamended PBS control. The extent of germination was measured by fluorescence microscopy staining patterns (e.g., the degree of cell membrane penetration by DNA stain), bulk fluorescence, OD600, and flow cytometry (FCM). A total of 100-300 cells per filter were counted and categorized as either “dormant” or “germinated” if the spore stain was localized to the cell membrane or diffused within the interior of the cell, respectively (Cronin and Wilkinson, 2007). Cells displaying an intermediate degree of stain dispersal (“activated”) were categorized as germinated (FIG. 1).
Sub-sample bulk fluorescence (Syto9®) was measured by microplate reader (BioTek Synergy 2; 485/20 excitation, 528/20 emission) and OD600 was measured by microplate reader. OD should decrease in germinated cells (the index of refraction decreases due to hydration upon spore coat degradation) while bulk fluorescence should increase as the nucleic acid stain progressively penetrates and permeates the cell (Magge et al., 2009). […]

Test [4] deals with B. megaterium SR7 spores. The test is described as follows: Delayed germination induction in PBS under 1 atm CO2 (bulk fluorescence, OD600). To be noted: 9.5 hours after delayed induction in PBS; for OD600 Fold Decrease: OD decrease indicative of germination. The method, then:
Sub-sample bulk fluorescence (Syto9®) was measured by microplate reader (BioTek Synergy 2; 485/20 excitation, 528/20 emission) and OD600 was measured by microplate reader. OD should decrease in germinated cells (the index of refraction decreases due to hydration upon spore coat degradation) while bulk fluorescence should increase as the nucleic acid stain progressively penetrates and permeates the cell (Magge et al., 2009). To test for germination after a delayed inducer spike rather than at the moment of inoculation, B. megaterium SR7 spores loaded at OD600 0.01 were incubated overnight in 30 ml of PBS, passaged into PBS amended with L-alanine (25-250 mM) or L-leucine (10-25 mM) and then assayed for germination by bulk fluorescence and OD600 during incubation.

Test [5] deals with B. megaterium SR7 spores. The test is described as follows: Spore germination and growth under scCO2 with germination inducers. As for the experimental part: SR7 growth outcomes were investigated under scCO2 headspace (90-100 atm; 37° C.) while shaking at 250 rpm. SR7 spores were inoculated at starting concentrations of ˜3×10^4 spores/ml (unless otherwise specified) in either 50 mM K2HPO4-buffered LB (P-LB) or M9+ media (Table 1). Experiments assaying the effect of germination induction included 100 mM L-alanine and 10 mM L-leucine media amendments and heat treatment upon reactor pressurization (70° C. for 10 minutes). Incubations were conducted in 316 stainless steel vessels and gradually pressurized to supercritical conditions using a CO2/He cylinder, as previously described. SR7 germination was verified by the identification of vegetative cell morphologies using fluorescence microscopy of Syto9-stained cultures. Growth was defined by an increase of at least 10-fold growth in cell counts relative to t0.
In order to ascertain whether L-alanine, L-leucine, and heat treatment induce germination under scCO2 headspace, three replicate experiments were conducted comparing growth for SR7 spores when loaded in media P-LB, P-LBL, P-LBAL, or P-LBA±heat treatment (Table 1; Table 2). Reactors were depressurized and scored for germination and growth by fluorescence microscopy, as previously described.
Cell densities of P-LB and L-PBA incubations from the three experiments (Table 3; Incubations A-C) were subjected to statistical analysis to establish the significance of 100 mM L-alanine on spore growth outcomes. A non-parametric Wilcoxon/Kruskal-Wallis Test was performed on the dataset (JMP® Pro v.12; SAS Cary, N.C.) where growth outcome (growth/no growth) and cell density fold change (relative to t0) were dependent variables and incubation time and inducer presence/absence (±100 mM L-alanine) were independent variables. […]

Test [6] concerns B. megaterium SR7 spores. Put plainly: Spore germination in LB under 1 atm CO2. The settings on record: 100 mM L-alanine-amended LB, unamended cultures grew between 4.5 and 6 hours. As for the experimental part: The ability to induce spore germination based on literature precedent was tested by inoculating triplicate 10 ml cultures of SR7 spores at OD600 0.01 in LB amended with 100 mM L-alanine, LB subjected to a heat activation (65° C. for 15 minutes) upon inoculation, or unamended LB as a control. Growth was scored by OD600 and LB agar CFU plate counts. In addition, subsamples were heat-killed by exposure to 80° C. for 10 minutes (Setlow, 2006) prior to plating, to ascertain remaining spore concentrations, as heat exposure is lethal to vegetative cells.

For test [7], the system named is B. megaterium SR7. Put plainly: Biolog GenIII sole carbon source growth. To be noted: Table 11. As for the experimental part:
Plates were incubated at 37° C. on a plate shaker at 200 rpm and assayed for growth using NADH-dependent colorimetric changes measured by OD490 on a microplate reader (BioTek Synergy 2; BioTek; Winooski, Vt.).

Where [8] appears, read: pooled incubations, 18-20 days, unamended reactors 36%.

On to `O=C[C@H](O)[C@@H](O)[C@H](O)CO` [0.4% Xylose, Xylose], for which the Growth entry in the test on B. megaterium SR7 [1] is “− (no growth below 0.2)”.
On to `C[C@H](N)C(=O)O` [L-alanine], for which, in the test with B. megaterium SR7 spores [2] (PBS only 3.7%), the “Spores gated as germinated (Syto16/PI fluorescence)” value was 1.38-31.8%. Besides, in the test on B. megaterium SR7 spores [2] (PBS only 22.0%), the “Spores gated as activated (Syto16/PI fluorescence)” value is 44-69%. The “Bulk fluorescence relative to PBS only incubated spores” value in the test on B. megaterium SR7 spores [3] is listed as 2.4 fold. The entries for the “Fluorescence Fold Increase” value in the test on B. megaterium SR7 spores [4] (25 mM inducer), in the test on B. megaterium SR7 spores [4] (100 mM inducer) and in the test on B. megaterium SR7 spores [4] (250 mM inducer) were 2.1 fold, 1.4 fold and 1.4 fold, respectively. In addition, the “OD600 Fold Decrease” value worked out at 1.5 fold with B. megaterium SR7 spores [4] (25 mM inducer), 1.2 fold in the test on B. megaterium SR7 spores [4] (100 mM inducer) and 1.2 fold in the test with B. megaterium SR7 spores [4] (250 mM inducer). Further, the “Growth frequency of cultures under scCO2” value stood at 63% in the test on B. megaterium SR7 spores [5] (setting [8]) and 50% in the test with B. megaterium SR7 spores [5] (with heat treatment). The Time to germination with B. megaterium SR7 spores [6] was ≤ 4.5 h. Also, the “Growth in carbon source Biolog plate, +Metals” value in the test with B. megaterium SR7 [7] (trace metals-amended plate) is given as “+”. In the test with B. megaterium SR7 [7] (unamended plate trial I), the “Growth in carbon source Biolog plate, I” value is listed as “+”. The “Growth in carbon source Biolog plate, II” value in the test on B. megaterium SR7 [7] (unamended plate trial II) is listed as “+”.
With `CC(C)C[C@H](N)C(=O)O` [L-leucine], in the test with B. megaterium SR7 spores [4] (10 mM inducer), the “Fluorescence Fold Increase” value is given as 2.0 fold and the “OD600 Fold Decrease” value is 1.2 fold. For the same molecule, in the test on B. megaterium SR7 spores [4] (25 mM inducer), the “Fluorescence Fold Increase” value was 2.0 fold and the “OD600 Fold Decrease” value was found to be 1.2 fold. Besides, the “Growth frequency of cultures under scCO2” value in the test with B. megaterium SR7 spores [5] (setting [8]) was 7.7%.
